Assay results published in a melting point compilation (Tetko et al.; mined from patent text by program, amines drawn as free bases though some values may be those of a salt).

First: COc1cccn2c(=O)c3c(nc12)C(=Cc1ccccc1Cl)CC3
Second: NC(=O)c1ccc2nc3c(c(=O)n2c1)CCC3=Cc1ccccc1
The melting point of the first is lower: 247 to 248 °C for the first, 350 to 357 °C for the second.

First: Nc1cccc(C2NC(=O)Cc3ccccc32)c1 (stereo not given)
Second: O=C1NC(c2ccccc2)C2=C1N=C1N=CNN1C2 (stereo not given)
The melting point of the first is lower: 179 to 180 °C for the first, 262 to 264 °C for the second.

Compared with Nc1cccc2c1ccn2S(=O)(=O)c1cccc2ccccc12, CS(=O)(=O)Oc1ccc(-c2c3ccccc3c(I)c3sc4ccccc4c23)cc1 is higher in melting point: 133 to 134 °C for the first, 176 to 186 °C for the second.

First: O=c1c2cc(O)ccc2oc2cccc(NCCN3CCCC3)c12
Second: O=C(Nc1cccc2cnccc12)NC1CC2(CCC2)Oc2c(O)cccc21 (stereo not given)
The melting point of the first is lower: 192 to 194 °C for the first, 246 to 247 °C for the second.

First: CN1CCN(CCOc2ccc3nc(C#N)nc(NC4CCCC4)c3c2)CC1
Second: COc1cc(N)ccc1N1CCN(CCCNc2c(C)c(=O)n(C)c(=O)n2C)CC1
The melting point of the first is lower: 110 to 112 °C for the first, 146 to 148 °C for the second.

Compared with CCSc1ccc(C2=NC[C@@H](OC(=O)Nc3ccccc3)[C@H](c3ccccc3)O2)cc1 (racemic), COC(=O)c1cc(OCCCCCCOc2ccc(-c3ccccc3)cc2)ccc1O is higher in melting point: 70 °C for the first, 91 to 92 °C for the second.

First: Cc1cccc(C)c1N(C)C(=O)Cl
Second: CC1=C(C(=O)O)Cc2ccc(C)cc21
The melting point of the first is lower: 79 to 80 °C for the first, 174 to 182 °C for the second.

First: COc1ccc(Cn2c(=O)n([C@H]3CC[C@H](O)CC3)c3ccc(C(N)=O)cc32)cc1Cl
Second: COc1cc(N)c(Cl)cc1C(=O)NCC1CCN(CCCCNC(=O)c2ccccc2)CC1
The melting point of the first is higher: 292 °C for the first, 165 to 168 °C for the second.

Compared with CC(C)c1cccc(CCC(O)CCCC2CCCCC2)c1NC(=O)CC1c2ccccc2Oc2ccccc21 (stereo not given), CCN(CC)c1ccc(-c2cc(-c3ccc(C(=O)O)cc3)ccc2CCCNC2CCCCC2)cc1C(C)(C)C is higher in melting point: 142 to 143 °C for the first, 253 °C for the second.

First: COC(=O)c1cn2c(C)c(-c3ccccc3)sc2n1
Second: O=Cc1c[nH]c(-c2ccccc2)c1
The melting point of the first is higher: 155 to 157 °C for the first, 136 to 137 °C for the second.

Compared with COc1cc2c(cc1C=O)C(C)(C)C(=O)N2C, CC1(C)CCC(C)(C)c2cc(C=O)c(C#C[Si](C)(C)C)cc21 is lower in melting point: 192 to 194 °C for the first, 78.4 to 82 °C for the second.

First: O=c1c2ccccc2[nH]n1CC#Cc1ccccc1
Second: O=c1c(C2=Nc3ccccc3S(=O)(=O)N2)c(O)c2ccccc2n1CCCC(F)(F)F
The melting point of the first is lower: 151 to 154 °C for the first, 249 to 250 °C for the second.

First: COc1ccc(F)cc1NC(=O)Nc1ccc(N2CCN(C(=O)Nc3ccc(OCCO)cc3C(F)(F)F)CC2)cc1
Second: O=C(Nc1cnccn1)N1CCN(c2nc(-c3cccc(F)c3)cs2)CC1
The melting point of the first is lower: 140 to 141 °C for the first, 158 to 159 °C for the second.

Compared with NCCCc1c[nH]c(-c2ccc(F)cc2)c1-c1ccncc1, CCOC(=O)c1c(-c2ccncc2)[nH]c(-c2ccncc2)c1-c1ccc([N+](=O)[O-])cc1 is higher in melting point: 198 to 199 °C for the first, 274 to 276 °C for the second.

First: CC[C@H](C)[C@H](NC(=O)NC(C)C)C(=O)N[C@H](CO)Cc1c[nH]c2ccccc12
Second: CCC(=O)Oc1ccc(N)cc1C(=O)O
The melting point of the first is lower: 211 to 213 °C for the first, 213 to 220 °C for the second.

First: Cc1nc2c3c(ccc2n1C)C(=O)[C@H](O)[C@@H](c1ccccc1)O3
Second: c1csc(-c2n[nH]c3c2sc2ccccc23)c1
The melting point of the first is lower: 233 °C for the first, 236 to 238 °C for the second.

Compared with CCOC(=O)c1c2n(c3cc(Cl)c(Cl)cc3c1=O)CCS2, CCS(=O)(=O)c1cc2c(c(C(=O)Cl)c1)OCCO2 is lower in melting point: 255 to 257 °C for the first, 146 to 147 °C for the second.

First: CCCCCCC1CCC(c2ccc(C(=O)CC(C)=O)cc2)CC1 (stereo not given)
Second: CCCCC=C(c1ccccc1N1CCCCC1)C(C(N)=O)c1ccc(C(=O)OCC)cc1 (stereo not given)
The melting point of the first is lower: 74 °C for the first, 83 to 85 °C for the second.

First: Cc1c(NC(=O)CC(C)(C)C)c(C)c2c(c1-c1cccc([N+](=O)[O-])c1)OCC2c1ccc(C(C)C)cc1 (stereo not given)
Second: Cc1cccc(COc2cccc(OCc3ccc(C(C)C)cc3)c2)c1C(=O)O
The melting point of the first is higher: 209 to 210 °C for the first, 132 to 133 °C for the second.

Compared with CC(C#N)=C1CCN(c2ccc(N3CC(COc4ccon4)OC3=O)cc2F)CC1 (stereo not given), O=CN1CCC(c2nn(-c3ccc(F)cc3)c3ccccc23)CC1 is lower in melting point: 137 to 138 °C for the first, 128 to 130 °C for the second.

Compared with Nc1nn(-c2ccccc2)cc1C=O, CC1NC(=O)NN=C1c1ccccc1 (stereo not given) is higher in melting point: 129 to 130 °C for the first, 214 °C for the second.

First: Nc1ncc(-c2noc(-c3cnn4c(C(F)(F)F)cc(-c5ccc(C(F)(F)F)c(F)c5)nc34)n2)cn1
Second: Cc1ccc(-c2cccc3cc(Cc4cccc(C(F)(F)F)c4)sc23)cc1C(=O)NCC(N)=O
The melting point of the first is higher: 270 °C for the first, 143 to 144 °C for the second.

First: CCCCCc1nnc(Sc2cc(O)c(C(C)(C)CC(C)(C)C)cc2O)n1-c1ccccc1
Second: CCCCCCCCCCCCc1nnn(CC(=O)Nc2c(OC)cc(OC)cc2OC)n1
The melting point of the first is higher: 198 °C for the first, 144 to 146 °C for the second.

First: COCOc1ccccc1-c1cc(-c2cccc(CN=[N+]=[N-])c2)c(C#N)c(NC(=O)c2cccs2)n1
Second: CN(C)CCCOc1ccc(N(C(=O)c2ccc([N+](=O)[O-])cc2)c2ccccc2)cc1
The melting point of the first is higher: 139 to 140 °C for the first, 89.5 to 92.5 °C for the second.

First: NC(=O)c1c(N)cccc1N1CCCC1
Second: Cc1cccc(C(=O)CC2CCCN(C)C2)c1 (stereo not given)
The melting point of the first is higher: 144 to 146 °C for the first, 92 to 94 °C for the second.

First: Nc1nc(=O)n(C2CC(O)C(CO)O2)cc1F (stereo not given)
Second: CC(C)(CO)CNc1nccc(-c2c(-c3ccc(F)cc3)nc3occn23)n1
The melting point of the first is higher: 199 to 201 °C for the first, 149 °C for the second.

Compared with NS(=O)(=O)c1cc(C(=O)c2ccccc2)ccc1Cl, Cc1oc(-c2ccccc2)nc1Cc1cc2cc(C=C3OC(=O)NC3=O)ccc2o1 is higher in melting point: 183 to 185 °C for the first, 185 to 200 °C for the second.

First: CS(=O)(=O)c1ccc(-c2cnn(-c3ccc(F)c(F)c3)c(=O)c2Cc2ccc(F)cc2)cc1
Second: CCOc1nn(Cc2ccc(OCc3nc(-c4ccco4)oc3C)cc2)cc1CCC(=O)O
The melting point of the first is higher: 157 to 159 °C for the first, 129 to 130 °C for the second.

First: CC(C)c1nc2ccccn2c(=O)c1Br
Second: CCc1nc2ccc(S(C)(=O)=O)nn2c1S(N)(=O)=O
The melting point of the first is lower: 204 to 207 °C for the first, 225 to 226 °C for the second.

First: C=CCC1(CC=C)CCC(=Cc2ccc(F)cc2)C1(O)Cn1cncn1 (stereo not given)
Second: Brc1ccc(-c2ccc(C=CC3COC4(CCCCC4)OO3)cc2)cc1 (stereo not given)
The melting point of the first is lower: 112 °C for the first, 118 to 120 °C for the second.

First: COc1ccc(OCCC#N)cc1
Second: COc1cc(NOC(C)=O)c(Cl)c(OC)c1
The melting point of the first is lower: 58 °C for the first, 117 to 118 °C for the second.

First: CC(C)c1cc(C(C)C)c(C=CCC(=O)O)c(C(C)C)c1
Second: CC(C)(C)OC(=O)[C@@H]1CC[C@H](CC(=O)O)N1Cc1ccccc1
The melting point of the first is higher: 201 to 203 °C for the first, 95 to 96 °C for the second.

First: c1ccc(-c2cc(-c3nc(-c4ccccc4)nc(-c4ccccc4)n3)c(-c3nccc4ccccc34)c(-c3cc4ccccc4c4ccccc34)c2)cc1
Second: CN1C(C)(C)CC(O)(CN2C(=O)C3(COc4cc5c(cc43)OCO5)c3ccccc32)CC1(C)C (stereo not given)
The melting point of the first is higher: 272 °C for the first, 210 to 214 °C for the second.

Compared with COc1ccc(C2=NN(C3CCCC3)C(=O)[C@H]3CC=CC[C@@H]23)cc1OC (relative stereo), CCCC(=NOCC)C1=C(O)CC(c2c(C)c(C)c(O)c(C)c2C)CC1=O (stereo not given) is higher in melting point: 131 to 133 °C for the first, 134 °C for the second.

Compared with NC(C(=O)O)C1CC(C(=O)O)C1C(=O)O (stereo not given), CCCCCCc1csc2c(CCCCCC)csc12 is lower in melting point: 205 to 209 °C for the first, 57.5 to 59.1 °C for the second.
